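Step 1: Grow cells in 96-well plates. Step 2: Expose to compound for 48 hours at 5 concentrations. Step 3: Interpolate endpoints linearly; if unreached, use highest concentration. The concentration for 50% growth inhibition is given as GI50. At the TGI there is no net growth.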
Assays:
Assay in all cases: NCI anticancer screen, dose series, 48 h
HCT-15 colon = system: HCT-15 colon
HT29 colon = system: HT29 colon
U251 CNS = system: U251 CNS
LOX IMVI melanoma = system: LOX IMVI melanoma
SF-539 CNS = system: SF-539 CNS
HOP-62 NSCLC = system: HOP-62 NSCLC
SF-295 CNS = system: SF-295 CNS
UO-31 renal = system: UO-31 renal
NCI-H226 lung = system: NCI-H226 lung
MOLT-4 leukemia = system: MOLT-4 leukemia
MDA-MB-435 = system: MDA-MB-435
OVCAR-5 ovarian = system: OVCAR-5 ovarian
UACC-257 melanoma = system: UACC-257 melanoma
K-562 leukemia = system: K-562 leukemia
786-0 renal = system: 786-0 renal
T-47D breast = system: T-47D breast
SK-MEL-5 melanoma = system: SK-MEL-5 melanoma
NCI/ADR-RES ovarian = system: NCI/ADR-RES ovarian
ACHN renal = system: ACHN renal
SK-MEL-2 melanoma = system: SK-MEL-2 melanoma
CCRF-CEM leukemia = system: CCRF-CEM leukemia
OVCAR-4 ovarian = system: OVCAR-4 ovarian
KM12 colon = system: KM12 colon
BT-549 breast = system: BT-549 breast
A549 NSCLC = system: A549 NSCLC
MDA-MB-231 breast = system: MDA-MB-231 breast
PC-3 prostate = system: PC-3 prostate
IGROV1 ovarian = system: IGROV1 ovarian
HOP-92 NSCLC = system: HOP-92 NSCLC
SF-268 CNS = system: SF-268 CNS
SW-620 colon = system: SW-620 colon
SNB-19 CNS = system: SNB-19 CNS
HCT-116 colon = system: HCT-116 colon
CAKI-1 renal = system: CAKI-1 renal
EKVX NSCLC = system: EKVX NSCLC
COLO 205 colon = system: COLO 205 colon
TK-10 renal = system: TK-10 renal
DU-145 prostate = system: DU-145 prostate
SK-OV-3 ovarian = system: SK-OV-3 ovarian
NCI-H460 lung = system: NCI-H460 lung
NCI-H23 lung = system: NCI-H23 lung
OVCAR-8 ovarian = system: OVCAR-8 ovarian
MALME-3M melanoma = system: MALME-3M melanoma
UACC-62 melanoma = system: UACC-62 melanoma
M14 melanoma = system: M14 melanoma
OVCAR-3 ovarian = system: OVCAR-3 ovarian
HCC-2998 colon = system: HCC-2998 colon
A498 renal = system: A498 renal
RPMI-8226 leukemia = system: RPMI-8226 leukemia
MCF7 breast = system: MCF7 breast
HS 578T breast = system: HS 578T breast
NCI-H522 lung = system: NCI-H522 lung
RXF 393 renal = system: RXF 393 renal
SK-MEL-28 melanoma = system: SK-MEL-28 melanoma
SN12C renal = system: SN12C renal

C=C1C(=O)O[C@H]2[C@H]1CC/C(COC(=O)NCc1ccc(Cn3c(=O)sn(-c4ccccc4)c3=O)cc1)=C\CC[C@@]1(C)O[C@@H]21
GI50 (HCT-15 colon): 1.94 µM | TGI (HCT-15 colon): 3.88 µM | GI50 (HT29 colon): 2.15 µM | TGI (HT29 colon): 4.14 µM | GI50 (U251 CNS): 2.37 µM | TGI (U251 CNS): 5.28 µM | GI50 (LOX IMVI melanoma): 1.62 µM | TGI (LOX IMVI melanoma): 3.07 µM | GI50 (SF-539 CNS): 1.57 µM | TGI (SF-539 CNS): 3.06 µM | GI50 (HOP-62 NSCLC): 12.4 µM | TGI (HOP-62 NSCLC): 26.3 µM | GI50 (SF-295 CNS): 8.52 µM | TGI (SF-295 CNS): 21.8 µM | GI50 (UO-31 renal): 1.68 µM | TGI (UO-31 renal): 3.16 µM | GI50 (NCI-H226 lung): 14.8 µM | TGI (NCI-H226 lung): 35.2 µM | GI50 (MOLT-4 leukemia): 2.2 µM | TGI (MOLT-4 leukemia): 7.09 µM | GI50 (MDA-MB-435): 2.07 µM | TGI (MDA-MB-435): 4.2 µM | GI50 (OVCAR-5 ovarian): 2.51 µM | TGI (OVCAR-5 ovarian): 6.73 µM | GI50 (UACC-257 melanoma): 1.86 µM | TGI (UACC-257 melanoma): 4.14 µM | GI50 (K-562 leukemia): 1.8 µM | TGI (K-562 leukemia): > 100 µM | GI50 (786-0 renal): 1.81 µM | TGI (786-0 renal): 3.37 µM | GI50 (T-47D breast): 1.98 µM | TGI (T-47D breast): 4.66 µM | GI50 (SK-MEL-5 melanoma): 3.24 µM | TGI (SK-MEL-5 melanoma): 11.5 µM | GI50 (NCI/ADR-RES ovarian): 19.1 µM | TGI (NCI/ADR-RES ovarian): 63.3 µM | GI50 (ACHN renal): 1.64 µM | TGI (ACHN renal): 3.14 µM | GI50 (SK-MEL-2 melanoma): 2.39 µM | TGI (SK-MEL-2 melanoma): 6.34 µM | GI50 (CCRF-CEM leukemia): 0.833 µM | TGI (CCRF-CEM leukemia): > 100 µM | GI50 (OVCAR-4 ovarian): 2.74 µM | TGI (OVCAR-4 ovarian): 8.19 µM | GI50 (KM12 colon): 3.46 µM | TGI (KM12 colon): 12.7 µM | GI50 (BT-549 breast): 2.14 µM | TGI (BT-549 breast): 5 µM | GI50 (A549 NSCLC): 6.22 µM | TGI (A549 NSCLC): 20.6 µM | GI50 (MDA-MB-231 breast): 1.71 µM | TGI (MDA-MB-231 breast): 3.52 µM | GI50 (PC-3 prostate): 2.36 µM | TGI (PC-3 prostate): 5.63 µM | GI50 (IGROV1 ovarian): 2.09 µM | TGI (IGROV1 ovarian): 4.2 µM | GI50 (HOP-92 NSCLC): 1.82 µM | TGI (HOP-92 NSCLC): 3.44 µM | GI50 (SF-268 CNS): 2.21 µM | TGI (SF-268 CNS): 5 µM | GI50 (SW-620 colon): 1.91 µM | TGI (SW-620 colon): 3.78 µM | GI50 (SNB-19 CNS): 4.26 µM | TGI (SNB-19 CNS): 16.1 µM | GI50 (HCT-116 colon): 1.52 µM | TGI (HCT-116 colon): 2.95 µM | GI50 (CAKI-1 renal): 2.49 µM | TGI (CAKI-1 renal): 6.1 µM | GI50 (EKVX NSCLC): 1.85 µM | TGI (EKVX NSCLC): 4.38 µM | GI50 (COLO 205 colon): 1.77 µM | TGI (COLO 205 colon): 3.44 µM | GI50 (TK-10 renal): 2.21 µM | TGI (TK-10 renal): 4.05 µM | GI50 (DU-145 prostate): 1.71 µM | TGI (DU-145 prostate): 3.12 µM | GI50 (SK-OV-3 ovarian): 14.1 µM | TGI (SK-OV-3 ovarian): 27.4 µM | GI50 (NCI-H460 lung): 3.67 µM | TGI (NCI-H460 lung): 12.4 µM | GI50 (NCI-H23 lung): 3.55 µM | TGI (NCI-H23 lung): 12.6 µM | GI50 (OVCAR-8 ovarian): 2.83 µM | TGI (OVCAR-8 ovarian): 8.55 µM | GI50 (MALME-3M melanoma): 2.09 µM | TGI (MALME-3M melanoma): 4.06 µM | GI50 (UACC-62 melanoma): 2.04 µM | TGI (UACC-62 melanoma): 4.15 µM | GI50 (M14 melanoma): 1.8 µM | TGI (M14 melanoma): 3.58 µM | GI50 (OVCAR-3 ovarian): 1.68 µM | TGI (OVCAR-3 ovarian): 3.12 µM | GI50 (HCC-2998 colon): 1.99 µM | TGI (HCC-2998 colon): 3.82 µM | GI50 (A498 renal): 3.91 µM | TGI (A498 renal): 14.5 µM | GI50 (RPMI-8226 leukemia): 2.03 µM | TGI (RPMI-8226 leukemia): 6.26 µM | GI50 (MCF7 breast): 1.59 µM | TGI (MCF7 breast): 3.55 µM | GI50 (HS 578T breast): 4.14 µM | TGI (HS 578T breast): 33.1 µM | GI50 (NCI-H522 lung): 1.74 µM | TGI (NCI-H522 lung): 3.48 µM | GI50 (RXF 393 renal): 1.75 µM | TGI (RXF 393 renal): 3.4 µM | GI50 (SK-MEL-28 melanoma): 1.7 µM | TGI (SK-MEL-28 melanoma): 3.41 µM | GI50 (SN12C renal): 2.14 µM | TGI (SN12C renal): 5.1 µM

— PubChem BioAssay (NCI)
